Assay results published in ChEMBL document CHEMBL1139858, “Design, synthesis, and X-ray structure of potent memapsin 2 (beta-secretase) inhibitors with isophthalamide derivatives as the P2-P3-ligands” (J Med Chem, 2007).

Legend:
Cathepsin D = Cathepsin D (Homo sapiens, UniProt P07339)
Description: Inhibition of human cathepsin D

Beta-secretase 1 [1] = biological target: T1, Beta-secretase 1 (Homo sapiens, UniProt P56817)
Description: Inhibition of memapsin 2 expressed in CHO cells

Beta-secretase 1 [2] = biological target: T1, Beta-secretase 1; remark: listed apart in the source
Description: Inhibition of recombinant memapsin 2

Chain of Cathepsin D (P07339 65-162 limits assumed): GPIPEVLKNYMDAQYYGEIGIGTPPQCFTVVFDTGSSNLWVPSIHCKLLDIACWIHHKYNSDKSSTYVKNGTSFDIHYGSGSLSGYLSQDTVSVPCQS
Chain of Cathepsin D (P07339 169-412 limits assumed): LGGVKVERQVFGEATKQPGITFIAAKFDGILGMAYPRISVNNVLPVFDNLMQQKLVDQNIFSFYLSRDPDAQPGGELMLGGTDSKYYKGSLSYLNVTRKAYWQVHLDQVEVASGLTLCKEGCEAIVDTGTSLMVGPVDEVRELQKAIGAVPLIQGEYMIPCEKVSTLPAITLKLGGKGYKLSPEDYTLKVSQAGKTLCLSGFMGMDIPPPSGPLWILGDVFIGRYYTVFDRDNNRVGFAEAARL
T1 sequence (P56817 whole entry): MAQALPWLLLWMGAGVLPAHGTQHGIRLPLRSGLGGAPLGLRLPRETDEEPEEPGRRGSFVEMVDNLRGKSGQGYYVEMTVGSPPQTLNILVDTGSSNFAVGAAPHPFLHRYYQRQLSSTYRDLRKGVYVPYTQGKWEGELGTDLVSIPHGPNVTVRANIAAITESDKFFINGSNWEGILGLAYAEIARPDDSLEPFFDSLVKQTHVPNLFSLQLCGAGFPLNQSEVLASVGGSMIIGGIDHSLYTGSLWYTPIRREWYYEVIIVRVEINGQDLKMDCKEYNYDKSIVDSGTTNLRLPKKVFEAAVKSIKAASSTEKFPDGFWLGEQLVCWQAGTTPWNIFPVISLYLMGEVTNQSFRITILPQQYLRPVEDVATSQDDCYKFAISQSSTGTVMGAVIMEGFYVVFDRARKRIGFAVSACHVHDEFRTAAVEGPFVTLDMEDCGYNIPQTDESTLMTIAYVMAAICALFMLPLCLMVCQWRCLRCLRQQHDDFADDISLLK

Ki (Cathepsin D) [µM]	IC50 (Beta-secretase 1 [1]) [µM]	Ki (Beta-secretase 1 [2]) [µM]	SMILES
0.483	3.6	0.0525	CCCNC(=O)c1cc(C(=O)N[C@@H](CC(C)C)[C@@H](O)C[C@@H](C)C(=O)N[C@H](C(=O)NC(C)C)C(C)C)cc(N(C)S(C)(=O)=O)c1
0.245	1.8	0.0018	Cc1nc(CNC(=O)c2cc(C(=O)N[C@@H](CC(C)C)[C@@H](O)C[C@@H](C)C(=O)N[C@H](C(=O)NC(C)C)C(C)C)cc(N(C)S(C)(=O)=O)c2)c(C)o1
	190	0.438	CC(C)C[C@H](NC(=O)c1cc(C(=O)N[C@H](CO)c2ccccc2)cc(N(C)S(C)(=O)=O)c1)[C@@H](O)C[C@@H](C)C(=O)N[C@H](C(=O)NC(C)C)C(C)C
0.49	10.3	0.027	Cc1nc(C(C)NC(=O)c2cc(C(=O)N[C@@H](CC(C)C)[C@@H](O)C[C@@H](C)C(=O)N[C@H](C(=O)NC(C)C)C(C)C)cc(N(C)S(C)(=O)=O)c2)c(C)o1 (some centres not stated)

SMILES	Ki (Cathepsin D) [µM]	IC50 (Beta-secretase 1 [1]) [µM]	Ki (Beta-secretase 1 [2]) [µM]
CCCNC(=O)c1cccc(C(=O)N[C@@H](CC(C)C)[C@@H](O)C[C@@H](C)C(=O)N[C@H](C(=O)NC(C)C)C(C)C)c1			0.788
